Patent publication US20200270232A1, “INHIBITORS OF INTEGRATED STRESS RESPONSE PATHWAY” (Praxis Biotech LLC, priority 2019, published 2020)

Legend:
[1] = test system: ATF4; assay: ATF4 expression inhibition assay (ATF4 luciferase reporter); type: cell-based; settings: Homo sapiens, HEK-293T; HEK293T cells carrying the ATF4 luciferase reporter, 100 nM thapsigargin (Tg), 3 hours; read-out: ATF4 inhbition IC50
Description: The ATF4 reporter was prepared by fusing the human full length 5′UTR of ATF4 (NCBI Accession No. BC022088.2) upstream of the firefly luciferase coding sequence lacking the initiator methionine. The fused sequence was cloned into pLenti-EF1a-C-Myc-DDK-IRES-Puro cloning vector (Origen # PS 100085) using standard methods. Virus production was carried out by using Lenti-X™ Packaging Single Shots Protocol (Clonetech #631276). Viral particles were used to transduce HEK293T cells (ATCC # CRL-3216, ATCC Manassas, Va.), which were subsequently selected with puromycin to generate stable cell line. Cells were maintained at 37° C. and 5% CO2 in DMEM-F12 (Hyclone # SH30023.02) supplemented with 10% heat-inactivated fetal bovine serum (Gibco #16000-044), 2 mM L-glutamine (Gibco #25030-081), 100 U/ml penicillin, and 100 μg/ml streptomycin (Gibco #15140-122).
HEK293T cells carrying the ATF4 luciferase reporter were plated on 96-well plates (Nunc) at 10,000 cells per well. Cells were treated two days after seeding with 100 nM thapsigargin (Tg) (Sigma-Aldrich # T9033) in the presence of different concentrations of selected compounds ranging from 1 nM to 10 μM. Cells without treatment or cells treated with Tg alone were used as controls. Assay plates containing cells were incubated for 3 hours at 37° C.
Luciferase reactions were performed using Luciferase Assay System (Promega # E1501) as specified by the manufacturer. Luminescence was read with an integration time of 1 s and a gain of 110 using a Cytation-5 multi-mode microplate reader (BioTek). Relative luminescence units were normalized to Tg treatment (0% inhibition) and untreated cells (100% inhibition) and the percentage of ATF4 inhibition was calculated.
Accordingly, inhibition of ATF4 expression as a result of the test compound indicates suppression of the ISR pathway.

[2] = test system: Chinese hamster ovary (CHO) cells; assay: Protein translation assay (puromycin labelling, western blot); type: cell-based; settings: 2 hours, media alone = 100%; for activity at 1 µM: Cricetulus griseus, unstressed CHO cells (without Tg), 1 μM test compound, read-out: % Protein synthesis relative to untreated (1 μM test compound); for % Recovery of protein synthesis (1 μM test compound): stressed CHO cells, 300 nM Tg, Tg alone = 0%
Description: Chinese hamster ovary (CHO) cells were maintained at 37° C. and 5% C02 in Dulbecco's Modified Eagle's Media (DMEM) supplemented with 10% fetal bovine serum, 2 mM L-glutamine, 100 U/ml penicillin, and 100 μg/ml streptomycin. After reaching 80% of confluence, cells were detached and seeded on 6 well plates in complete media, allowed to recover overnight and treated for 2 hours with 1 μM of the test compound (to assess protein synthesis levels in unstressed condition), or for 2 hours with 300 nM Tg in the presence of 1 μM of the test compound (to assess the recovery of protein synthesis in a stressed condition). Cells with Tg alone were used as controls.
After the 2 hours treatments, media were replaced by adding 10 μg/ml puromycin (Sigma Aldrich # P8833) in complete media for 30 min. Media were removed and cells were lysed with SDS-PAGE lysis buffer. Lysates were transferred to 1.5 ml tubes and sonicated for 3 min and total protein amount were quantified using BCA Protein Assay Kit (Pierce). Equal amount of protein (30 μg) was loaded on SDS-PAGE gels. Proteins were transferred onto 0.2 μm PVDF membranes (BioRad) and probed with primary antibodies diluted in Tris-buffered saline supplemented with 0.1% Tween 20 (Merck # S6996184 505) and 3% bovine serum albumin (Rockland # BSA-50).
Puromycin (12D10) (Merck # MABE343) and β-actin (Sigma Aldrich # A5441) antibodies were used as primary antibody. A HRP-conjugated secondary antibody (Rockland) was employed to detect immune-reactive bands using enhanced chemiluminescence (ECL Western Blotting Substrate, Pierce). Quantification of protein bands was done by densitometry using ImageJ software.
Percent increase of protein synthesis in unstressed cells (without Tg treatment) in the presence of media alone or certain test compounds is shown in Table 3. The percentage levels were normalized to the media alone condition, which correspond to 100% protein synthesis.
Percent recovery of protein synthesis in stressed cells (with Tg treatment) due to the test compounds at 1 μM is also shown in Table 3. The levels were normalized to the media alone and Tg alone conditions, which correspond to 100% and 0% respectively.

Row | IC50 [1] | SMILES | activity at 1 µM [2] | % Recovery of protein synthesis (1 μM test compound) [2]
1 | 856 nM | O=C(COc1ccc(Cl)c(F)c1)N[C@H]1CC[C@H](NC(=O)COc2ccc(Cl)c(F)c2)C1 [Compound 1, N,N′-((1S,3S)-cyclopentane-1,3-diyl)bis(2-(4-chloro-3-fluorophenoxy)acetamide)] | 46.9% | –
2 | > 1000 nM | O=C(COc1ccc(Cl)c(F)c1)N[C@H]1CC[C@@H](NCC(O)COc2ccc(Cl)c(F)c2)C1 (stereo partly drawn) [Compound 2, 2-(4-chloro-3-fluorophenoxy)-N-((1S,3R)-3-((3-(4-chloro-3-fluorophenoxy)-2-hydroxypropyl)amino)cyclopentyl)acetamide] | 84.7% | 28.2%
3 | 249 nM | O=C(N[C@H]1CC[C@@H](NCC(O)COc2ccc(Cl)c(F)c2)C1)c1ccc2cc(Cl)ccc2n1 (stereo partly drawn) [Compound 3, 6-chloro-N-((1S,3R)-3-((3-(4-chloro-3-fluorophenoxy)-2-hydroxypropyl)amino)cyclopentyl)quinoline-2-carboxamide] | 176% | 286%
4 | > 100 nM | O=C(COc1ccc(Cl)c(F)c1)NCC1CCN(C(=O)COc2ccc(Cl)c(F)c2)C1 (stereo not shown) [Compound 4, 2-(4-chloro-3-fluorophenoxy)-N-((1-(2-(4-chloro-3-fluorophenoxy)acetyl)pyrrolidin-3-yl)methyl)acetamide] | 76.1% | –
5 | > 100 nM | O=C(COc1ccc(Cl)c(F)c1)NCC1CCN(C(=O)c2ccc3cc(Cl)ccc3n2)C1 (stereo not shown) [Compound 5, 2-(4-chloro-3-fluorophenoxy)-N-((1-(6-chloroquinoline-2-carbonyl)pyrrolidin-3-yl)methyl)acetamide] | 94.2% | 0.00%
6 | > 100 nM | O=C(COc1ccc(Cl)c(F)c1)NCC1CCN(C(=O)c2cc3cc(Cl)ccc3o2)C1 (stereo not shown) [Compound 6, 2-(4-chloro-3-fluorophenoxy)-N-((1-(5-chlorobenzofuran-2-carbonyl)pyrrolidin-3-yl)methyl)acetamide] | 81.2% | 0.00%
7 | > 100 nM | O=C(COc1ccc(Cl)c(F)c1)NCC1CCN(CC(O)COc2ccc(Cl)c(F)c2)C1 (stereo not shown) [Compound 7, 2-(4-chloro-3-fluorophenoxy)-N-((1-(3-(4-chloro-3-fluorophenoxy)-2-hydroxypropyl)pyrrolidin-3-yl)methyl)acetamide] | 122% | –
8 | > 1000 nM | O=C(NCC1CCN(CC(O)COc2ccc(Cl)c(F)c2)C1)c1cc2cc(Cl)ccc2o1 (stereo not shown) [Compound 8, 5-chloro-N-((1-(3-(4-chloro-3-fluorophenoxy)-2-hydroxypropyl)pyrrolidin-3-yl)methyl)benzofuran-2-carboxamide] | 107% | 31.57%
9 | 3.58 nM | O=C(COc1ccc(Cl)c(F)c1)NCC1CCN(NC(=O)c2cc3cc(Cl)ccc3o2)C1 (stereo not shown) [Compound 12, 5-chloro-N-(3-((2-(4-chloro-3-fluorophenoxy)acetamido)methyl)pyrrolidin-1-yl)benzofuran-2-carboxamide] | 97.7% | 13%
10 | > 100 nM | O=C(N[C@H]1CC[C@H](NCC(O)COc2ccc(Cl)c(F)c2)C1)c1ccc2cc(Cl)ccc2n1 (stereo partly drawn) [Compound 13, 6-chloro-N-((1S,3S)-3-((3-(4-chloro-3-fluorophenoxy)-2-hydroxypropyl)amino)cyclopentyl)quinoline-2-carboxamide] | 288% | 161.6%
11 | 217 nM | O=C(COc1ccc(Cl)c(F)c1)N[C@H]1CC[C@H](NC(=O)c2cc3cc(Cl)ccc3o2)C1 [Compound 14, 5-chloro-N-((1S,3S)-3-(2-(4-chloro-3-fluorophenoxy)acetamido)cyclopentyl)benzofuran-2-carboxamide] | 65.9% | –
12 | > 100 nM | O=C(COc1ccc(Cl)c(F)c1)N[C@@H]1CC[C@H](NC(=O)COc2ccc(Cl)c(F)c2)C1 [Compound 15, N,N′-((1R,3S)-cyclopentane-1,3-diyl)bis(2-(4-chloro-3-fluorophenoxy)acetamide)] | 110% | –
13 | 134 nM | O=C(COc1ccc(Cl)c(F)c1)N[C@H]1CC[C@H](NC(=O)c2ccc3cc(Cl)ccc3n2)C1 [Compound 16, 6-chloro-N-((1S,3S)-3-(2-(4-chloro-3-fluorophenoxy)acetamido)cyclopentyl)quinoline-2-carboxamide] | 95.4% | –
14 | 102 nM | O=C(COc1ccc(Cl)c(F)c1)N[C@@H]1CC[C@H](NC(=O)c2cc3cc(Cl)ccc3o2)C1 [Compound 17, 5-chloro-N-((1S,3R)-3-(2-(4-chloro-3-fluorophenoxy)acetamido)cyclopentyl)benzofuran-2-carboxamide] | 78.4% | 22%
15 | 178 nM | O=C(N[C@H]1CC[C@H](NCC(O)COc2ccc(Cl)c(F)c2)C1)c1cc2cc(Cl)ccc2o1 (stereo partly drawn) [Compound 18, 5-chloro-N-((1S,3S)-3-((3-(4-chloro-3-fluorophenoxy)-2-hydroxypropyl)amino)cyclopentyl)benzofuran-2-carboxamide] | 158% | –
16 | > 100 nM | O=C(COc1ccc(Cl)c(F)c1)N[C@@H]1CC[C@H](NC(=O)c2ccc3cc(Cl)ccc3n2)C1 [Compound 19, 6-chloro-N-((1S,3R)-3-(2-(4-chloro-3-fluorophenoxy)acetamido)cyclopentyl)quinoline-2-carboxamide] | 76.1% | –
17 | > 100 nM | O=C(COc1ccc(Cl)c(F)c1)N[C@H]1CC[C@H](NCC(O)COc2ccc(Cl)c(F)c2)C1 (stereo partly drawn) [Compound 20, 2-(4-chloro-3-fluorophenoxy)-N-((1S,3S)-3-((3-(4-chloro-3-fluorophenoxy)-2-hydroxypropyl)amino)cyclopentyl)acetamide] | 123% | 52.5%
18 | > 1000 nM | O=C(N[C@H]1CC[C@@H](NCC(O)COc2ccc(Cl)c(F)c2)C1)c1cc2cc(Cl)ccc2o1 (stereo partly drawn) [Compound 21, 5-chloro-N-((1S,3R)-3-((3-(4-chloro-3-fluorophenoxy)-2-hydroxypropyl)amino)cyclopentyl)benzofuran-2-carboxamide] | 141% | 54.6%
19 | > 1000 nM | O=C(NCC1CCC(NCC(O)COc2ccc(Cl)c(F)c2)C1)c1cc2cc(Cl)ccc2o1 (stereo not shown) [Compound 33, 5-chloro-N-((3-((3-(4-chloro-3-fluorophenoxy)-2-hydroxypropyl)amino)cyclopentyl)methyl)benzofuran-2-carboxamide] | 147% | 101.1%
20 | > 1000 nM | O=C(NCC1CCC(NCC(O)COc2ccc(Cl)c(F)c2)C1)c1ccc2cc(Cl)ccc2n1 (stereo not shown) [Compound 34, 6-chloro-N-((3-((3-(4-chloro-3-fluorophenoxy)-2-hydroxypropyl)amino)cyclopentyl)methyl)quinoline-2-carboxamide] | 166% | 122.6%
